Data on 112 compounds can be found in PubChem BioAssay AID1189 (EPA DSSTox, 2008).

Active and inactive are the calls of the source.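 The calls were made as follows: active = a tumor-causing dose value with its tumor site reported for any sex and species group of a rodent or other animal cancer study; inconclusive = only studies judged inadequate by the national testing program; inactive = tested in at least one study, none positive.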

This data set is described as follows: DSSTox (CPDBAS) Carcinogenic Potency Database Summary SingleCellCall Results. The settings on record: animal chronic carcinogenicity bioassays, CPDB summary call. The gist of the method:
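Categorical carcinogenicity call compiled from published chronic rodent and other animal cancer bioassays; based on the most positive result across experiments for each sex-species, assigned on minimal evidence for or against activity.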
As to `C=CC#N`, the outcome was active.
To `COc1ccc(O)c(C(C)(C)C)c1` belongs “active; inactive”; to `CC(C)(CO)CCCCCCC(C)(C)CO`, “inactive”.
The value for `O=NN1CCC[C@H]1C(=O)O` was “inactive”; that for `C=COC(N)=O` was “active; inactive”.
Take `CC1(C)C(=O)Nc2ccc(C3=NNC(=O)CC3)cc21`: the result was active.
The value for `CCC(CC)C(=O)NC(N)=O` was “inactive; active”.
As for `CCN=[N+]([O-])CC`, the outcome was active.
To `CN(C)CCO` belongs “inactive; active”; to `[S-]c1nc2ccccc2s1.[S-]c1nc2ccccc2s1.[Zn+2]`, “inactive; active”.
As to `O=CC1CO1` (configuration not stated), the result was inactive.
For the compound `Cc1c(COC(=O)C2C(/C=C(\Cl)C(F)(F)F)C2(C)C)cccc1-c1ccccc1` (configuration not stated), the outcome was “inactive; active”.
For `Cc1ccc(NC(N)=O)cc1`, the result was active.
As for `CC(=O)OC[C@H]1O[C@H](O[C@]2(COC(C)=O)O[C@H](COC(=O)C(C)C)[C@@H](OC(=O)C(C)C)[C@@H]2OC(=O)C(C)C)[C@H](OC(=O)C(C)C)[C@@H](OC(=O)C(C)C)[C@@H]1OC(=O)C(C)C`, the outcome was inactive.
To `O=S(=O)(c1ccc(Cl)cc1)c1cc(Cl)c(Cl)cc1Cl` belongs “inactive”; to `CC1(C)COC1=O`, “active”.
The value for `CC(O)CNCC(C)O` (configuration not stated) was “inactive”; that for `Cc1ccc(O)c(C(C)(C)C)c1` was “inactive”.
To `CC(O)CN(CC(C)O)CC(C)O` (configuration not stated) belongs “inactive; active”; to `CC(C)n1c(/C=C/[C@@H](O)C[C@@H](O)CC(=O)O)c(-c2ccc(F)cc2)c2ccccc21`, “active”; to `COc1ccc(CCN2CCC(Nc3nc4ccccc4n3Cc3ccc(F)cc3)CC2)cc1`, “inactive”.
`C[C@@H]1O[C@@H](OC[C@H]2O[C@@H](Oc3c(-c4ccc(O)c(O)c4)oc4cc(O)cc(O)c4c3=O)[C@H](O)[C@@H](O)[C@@H]2O)[C@H](O)[C@H](O)[C@H]1O`: the result was inactive.
The value for `S=C(S)NCCNC(=S)S` was “inactive”; that for `CC(O)CN(CCO)N=O` (configuration not stated) was “active”.
To `CCCCCCCCCCCCN(C)N=O` belongs “active”; to `N/C(=N\O)c1ccc([N+](=O)[O-])o1`, “inactive”.
Consider `CCCCC(CC)COC(=O)c1ccccc1C(=O)OCC(CC)CCCC` (configuration not stated), for which the outcome was active.
As for `CC[C@]1(O)CC2CN(CCc3c([nH]c4ccccc34)[C@@](C(=O)OC)(c3cc4c(cc3OC)N(C)[C@H]3[C@@](O)(C(=O)OC)[C@H](OC(C)=O)[C@]5(CC)C=CCN6CC[C@]43[C@@H]65)C2)C1` (some centres not stated), the result was inactive.
Turning to `[K+]`, the outcome was “active; inactive”.
To `CC(=O)Nc1ccc2c(c1)Cc1ccccc1-2` belongs “active”; to `CC(=O)Nc1cccc2c1-c1ccccc1C2`, “inactive”.
As for `ClCOCCCCCCOCCl`, the outcome was inactive.
As for `CCCCC(CC)CO` (configuration not stated), the outcome was “active; inactive”.
Take `Nc1ccccc1N`: the outcome is “active; inactive”.
In the case of `c1ccc2c(c1)[nH]c1cnccc12`, the outcome was inactive.
With `CC1=C[C@H]2[C@@]3(O)[C@H](C)[C@@H](O)[C@]4(O)[C@H]([C@@H]3C=C(CO)C[C@]2(O)C1=O)C4(C)C`, the outcome was active.
To `O=S(=O)(O)c1cc(S(=O)(=O)O)c2c(N=Nc3ccccc3)c(O)ccc2c1` belongs “inactive”.
For the compound `CCCN(CCC)N=O`, the result was active.
To `NNC(=O)c1ccncc1` belongs “active; inactive”; to `Clc1c(Cl)c(Cl)c(Cl)c(Cl)c1Cl`, “active; inactive”; to `CCCCC(CC)COC(=O)COc1ccc(Cl)cc1Cl` (configuration not stated), “inactive”.
The value for `CC(C)CN(N=O)C(N)=O` was “active”.
`O=C1OC(O)C(C(Cl)Cl)=C1Cl` (configuration not stated): the outcome was active.
The value for `Nc1c(Cl)cc(Cl)cc1Cl` was “active”; that for `NNC(N)=O` was “active; inactive”; that for `ClCC(Cl)CCl` was “active; inactive”.
To `CCC(Cl)CCC(Cl)C(Cl)CC(Cl)C(Cl)C(Cl)CCl` (configuration not stated) belongs “active”; to `[C-]1=CC=CC1.[C-]1=CC=CC1.[Cl-].[Cl-].[Ti+4]`, “inactive; active”; to `Cc1cccc(Nc2cc(Cl)nc(SCC(=O)O)n2)c1C`, “active; inactive”.
As for `C/C=C/C=C/C=O`, the outcome was active.
To `O=C(O)[C@@H]1[C@H](C(=O)O)[C@@]2(Cl)C(Cl)=C(Cl)[C@]1(Cl)C2(Cl)Cl` belongs “active”; to `ClC(Cl)C(Cl)(Cl)Cl`, “active”; to `CC1=C[C@H]2O[C@@H]3[C@H](O)[C@@H](O)[C@@](C)(C34CO4)[C@@]2(CO)[C@H](O)C1=O` (some centres not stated), “inactive; active”.
Take `Clc1ccc(Sc2cc(Cl)c(Cl)cc2Cl)cc1`: the result was inactive.
The value for `Cc1ccccc1S(N)(=O)=O` was “active”.
To `NCC1(CC(=O)O)CCCCC1` belongs “active”.
Consider `Cc1cn([C@H]2C[C@H](N=[N+]=[N-])[C@@H](CO)O2)c(=O)[nH]c1=O`, for which the result was active.
As to `Cc1cccc2ccccc12`, the outcome is “inactive; active”.
On to `CC(=O)NN`, for which the result was active.
To `CCN(CC(F)(F)F)N=O` belongs “active”; to `O=[N+]([O-])c1cc([As](=O)(O)O)ccc1O`, “inactive”; to `CN(CC(O)CO)N=O` (configuration not stated), “active”.
Take `ClC(Cl)=C(c1ccc(Cl)cc1)c1ccc(Cl)cc1`: the outcome was active.
For `NC(N)=NC(N)=NCCc1ccccc1`, the outcome was inactive.
On to `ClC/C=C/CCl`, for which the outcome is “active; inactive”.
In the case of `O=C1C(O)N=C(c2ccccc2F)c2cc(Cl)ccc2N1CCO` (configuration not stated), the outcome was inactive.
The value for `CCCCCCCCS(=O)C(C)Cc1ccc2c(c1)OCO2` (configuration not stated) was “active”; that for `CNC(=O)Oc1cccc2c1OC(C)(C)C2` was “inactive”; that for `CCCCC/C=N/N(C)C=O` was “active”.
`CCOC(=O)/C=C\C(=O)OCC`: the outcome is “inactive; active”.
To `ClC1(Cl)C2(Cl)C3(Cl)C4(Cl)C(Cl)(Cl)C5(Cl)C3(Cl)C1(Cl)C5(Cl)C24Cl` (configuration not stated) belongs “active; inactive”; to `CCCCOC(=O)COc1ccc(Cl)cc1Cl`, “inactive”; to `COc1cc2c(c3oc(=O)c4c(c13)CC[C@H]4O)[C@@H]1C=CO[C@H]1O2`, “active”.
Turning to `Nc1cc([N+](=O)[O-])ccc1C(=O)O`, the result was inactive.
Consider `Cc1c(N)cccc1N`, for which the result was inactive.
In the case of `CNc1ncnc2nc[nH]c12`, the result was inactive.
Consider `COCCl`, for which the outcome was “active; inactive”.
Take `CC(Cl)(Cl)Cl`: the outcome was inactive.
The value for `CC(=O)N(O)c1ccc2c(c1)Cc1ccccc1-2` was “active; inactive”; that for `CCN(CC)C(=O)Nc1ccc(OCC(O)CNC(C)(C)C)c(C(C)=O)c1` (configuration not stated) was “inactive; active”; that for `COP(=S)(OC)Oc1ccc(SC)c(C)c1` was “inactive”.
On to `Clc1ccc(C(c2ccc(Cl)cc2)C(Cl)(Cl)Cl)cc1`, for which the outcome was active.
On to `CC1=C(C)C(=O)C(C(CCCCCC(=O)O)c2ccccc2)=C(C)C1=O` (configuration not stated), for which the outcome was inactive.
Turning to `CCNN`, the result was active.
To `Cn1cc(OCC(O)CNC(C)(C)C)c2ccccc2c1=O` (configuration not stated) belongs “inactive; active”; to `FC(F)OC(Cl)C(F)(F)F` (configuration not stated), “inactive”.
The value for `CCCCC(C)(O)C/C=C/[C@H]1[C@H](O)CC(=O)[C@@H]1CCCCCCC(=O)OC` (some centres not stated) was “inactive; active”.
In the case of `ClC(Cl)(Cl)Cl`, the outcome was “active; inactive”.
On to `S=C=NCc1ccccc1`, for which the outcome was inactive.
To `COc1cc2c(c3oc(=O)c4c(c13)CCC4=O)C1C=COC1O2` (configuration not stated) belongs “active”; to `O=P(O)(OCC(Br)CBr)OCC(Br)CBr` (configuration not stated), “active; inactive”.
The value for `CCNc1nc(Cl)nc(NC(C)C)n1` was “active”; that for `ClCCl` was “active”.
To `C#CC(C)(C)NC(=O)c1cc(Cl)cc(Cl)c1` belongs “active”; to `COP(=S)(OC)SCn1nnc2ccccc2c1=O`, “inactive”.
As to `Nc1ccc2nc3ccccn3c2n1`, the outcome was “active; inactive”.
The value for `Nc1ccccc1C(=O)OC/C=C/c1ccccc1` was “active”; that for `O=C(O)COc1cc(Cl)c(Cl)cc1Cl` was “inactive”.
Consider `C=Cc1ccc(C)cc1`, for which the outcome was inactive.
As for `CN(C)C(=S)S`, the result was inactive.
To `CN=[N+](C)[O-]` belongs “active”.
Turning to `O=C1CCO1`, the outcome is “active; inactive”.
The value for `Cc1ccc(-c2cc(C(F)(F)F)nn2-c2ccc(S(N)(=O)=O)cc2)cc1` was “inactive”; that for `CCS(=O)(=O)c1ccc(S(N)(=O)=O)c2ccccc12` was “active”; that for `Nc1c(Cl)c(Cl)nc(C(=O)O)c1Cl` was “inactive”.
Regarding `O=S(=O)(O)c1ccc2c(N=Nc3ccc(S(=O)(=O)O)c4ccccc34)c(O)c(S(=O)(=O)O)cc2c1`, the outcome was active.
Consider `NC(=O)c1cnccn1`, for which the outcome was inactive.
The value for `Cc1ccc(Cl)cc1N` was “active”.
To `CCNc1nc(Cl)nc(NCC)n1` belongs “inactive”.
The value for `CC(C)(C)NC[C@H](O)COc1cccc2c1CCCC2=O` was “inactive”; that for `O=C(O)c1cccnc1` was “inactive”.
For `O=Cc1ccccc1`, the outcome was active.
